Laboratory results as given in patent publication US20230085307A1, “PYRIDAZINONE COMPOUND AND HERBICIDE” (NISSAN CHEMICAL CORPORATION, priority 2019, published 2023).

Experiments:
[1] = tested on: barnyard grass; experiment: Test Example 3: herbicidal effect by foliage application, Wagner pot (Table 18, symbol H); type: in vivo, barnyard grass (Echinochloa crus-galli); settings: 320 g/ha
How it was run: (§1)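 Plants were sown in alluvial soil held under 0.1–0.5 cm standing water and grown 14 days in a greenhouse at 25–30 °C. An emulsifiable formulation, water-diluted to the set dose, was then sprayed onto the foliage, and effects were scored three weeks later using previously defined criteria.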

[2] = tested on: Chinese sprangletop; experiment: Test Example 3: herbicidal effect by foliage application, Wagner pot (Table 18, symbol D); type: in vivo, chinese sprangletop (Leptochloa chinensis); settings: 320 g/ha
How it was run: as §1

[3] = tested on: rice flat sedge; experiment: Test Example 3: herbicidal effect by foliage application, Wagner pot (Table 18, symbol E); type: in vivo, rice flat sedge (Cyperus iria); settings: 320 g/ha
How it was run: as §1

[4] = tested on: southern crabgrass; experiment: Test Example 4: herbicidal effect by soil treatment (Table 19, symbol F); type: in vivo, southern crabgrass (Digitaria ciliaris); settings: AAH 320 g/ha
How it was run: (§2)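 Emulsion of test compound, water-diluted to predetermined amount, sprayed on soil after sowing (seed depth ~1.5 cm, sterilized diluvial soil). Greenhouse, 25–30° C. Effect graded at three weeks post-spray.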

[5] = tested on: green foxtail; experiment: Test Example 4: herbicidal effect by soil treatment (Table 19, symbol G); type: in vivo, green foxtail (Setaria viridis); settings: AAH 320 g/ha
How it was run: as §2

[6] = tested on: barnyard grass; experiment: Test Example 4: herbicidal effect by soil treatment (Table 19, symbol H); type: in vivo, barnyard grass (Echinochloa crus-galli); settings: AAH 320 g/ha
How it was run: as §2

[7] = tested on: wild oat; experiment: Test Example 4: herbicidal effect by soil treatment (Table 19, symbol I); type: in vivo, wild oat (Avena fatua); settings: AAH 320 g/ha
How it was run: as §2

[8] = tested on: blackgrass; experiment: Test Example 4: herbicidal effect by soil treatment (Table 19, symbol J); type: in vivo, blackgrass (Alopecurus myosuroides); settings: AAH 320 g/ha
How it was run: as §2

[9] = tested on: Italian ryegrass; experiment: Test Example 4: herbicidal effect by soil treatment (Table 19, symbol K); type: in vivo, Italian ryegrass (Lolium multiflorum); settings: AAH 320 g/ha
How it was run: as §2

[10] = tested on: windgrass; experiment: Test Example 4: herbicidal effect by soil treatment (Table 19, symbol L); type: in vivo, windgrass (Apera spica-venti); settings: AAH 320 g/ha
How it was run: as §2

[11] = tested on: velvetleaf; experiment: Test Example 4: herbicidal effect by soil treatment (Table 19, symbol M); type: in vivo, velvetleaf (Abutilon theophrasti); settings: AAH 320 g/ha
How it was run: as §2

[12] = tested on: redroot pigweed; experiment: Test Example 4: herbicidal effect by soil treatment (Table 19, symbol N); type: in vivo, redroot pigweed (Amaranthus retroflexus); settings: AAH 320 g/ha
How it was run: as §2

[13] = tested on: lambsquarters; experiment: Test Example 4: herbicidal effect by soil treatment (Table 19, symbol O); type: in vivo, lambsquarters (Chenopodium album); settings: AAH 320 g/ha
How it was run: as §2

[14] = tested on: chickweed; experiment: Test Example 4: herbicidal effect by soil treatment (Table 19, symbol P); type: in vivo, common chickweed (Stellaria media); settings: AAH 320 g/ha
How it was run: as §2

[15] = tested on: persian speedwell; experiment: Test Example 4: herbicidal effect by soil treatment (Table 19, symbol R); type: in vivo, Persian speedwell (Veronica persica); settings: AAH 320 g/ha
How it was run: as §2

[16] = tested on: southern crabgrass; experiment: Test Example 5: herbicidal effect by foliage application, plastic box (Table 20, symbol F); type: in vivo, southern crabgrass (Digitaria ciliaris); settings: foliage application, AAH 320 g/ha, three weeks after application
How it was run: (§3)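 Post-emergence foliar test in sterilized diluvial soil. Compound applied as water-diluted emulsion at a predetermined rate to 14-day-old plants; evaluation at three weeks.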

[17] = tested on: green foxtail; experiment: Test Example 5: herbicidal effect by foliage application, plastic box (Table 20, symbol G); type: in vivo, green foxtail (Setaria viridis); settings: foliage application, AAH 320 g/ha, three weeks after application
How it was run: as §3

[18] = tested on: barnyard grass; experiment: Test Example 5: herbicidal effect by foliage application, plastic box (Table 20, symbol H); type: in vivo, barnyard grass (Echinochloa crus-galli); settings: foliage application, AAH 320 g/ha, three weeks after application
How it was run: as §3

[19] = tested on: wild oat; experiment: Test Example 5: herbicidal effect by foliage application, plastic box (Table 20, symbol I); type: in vivo, wild oat (Avena fatua); settings: foliage application, AAH 320 g/ha, three weeks after application
How it was run: as §3

[20] = tested on: blackgrass; experiment: Test Example 5: herbicidal effect by foliage application, plastic box (Table 20, symbol J); type: in vivo, blackgrass (Alopecurus myosuroides); settings: foliage application, AAH 320 g/ha, three weeks after application
How it was run: as §3

[21] = tested on: Italian ryegrass; experiment: Test Example 5: herbicidal effect by foliage application, plastic box (Table 20, symbol K); type: in vivo, Italian ryegrass (Lolium multiflorum); settings: foliage application, AAH 320 g/ha, three weeks after application
How it was run: as §3

[22] = tested on: windgrass; experiment: Test Example 5: herbicidal effect by foliage application, plastic box (Table 20, symbol L); type: in vivo, windgrass (Apera spica-venti); settings: foliage application, AAH 320 g/ha, three weeks after application
How it was run: as §3

[23] = tested on: velvetleaf; experiment: Test Example 5: herbicidal effect by foliage application, plastic box (Table 20, symbol M); type: in vivo, velvetleaf (Abutilon theophrasti); settings: foliage application, AAH 320 g/ha, three weeks after application
How it was run: as §3

[24] = tested on: redroot pigweed; experiment: Test Example 5: herbicidal effect by foliage application, plastic box (Table 20, symbol N); type: in vivo, redroot pigweed (Amaranthus retroflexus); settings: foliage application, AAH 320 g/ha, three weeks after application
How it was run: as §3

[25] = tested on: lambsquarters; experiment: Test Example 5: herbicidal effect by foliage application, plastic box (Table 20, symbol O); type: in vivo, lambsquarters (Chenopodium album); settings: foliage application, AAH 320 g/ha, three weeks after application
How it was run: as §3

[26] = tested on: chickweed; experiment: Test Example 5: herbicidal effect by foliage application, plastic box (Table 20, symbol P); type: in vivo, common chickweed (Stellaria media); settings: foliage application, AAH 320 g/ha, three weeks after application
How it was run: as §3

[27] = tested on: persian speedwell; experiment: Test Example 5: herbicidal effect by foliage application, plastic box (Table 20, symbol R); type: in vivo, Persian speedwell (Veronica persica); settings: foliage application, AAH 320 g/ha, three weeks after application
How it was run: as §3

| SMILES | herbicidal effect on H (barnyard grass), rating 0-5 [1] | herbicidal effect on D (Chinese sprangletop), rating 0-5 [2] | herbicidal effect on E (rice flat sedge), rating 0-5 [3] | F: southern crabgrass, herbicidal effect rating [4] | G: green foxtail, herbicidal effect rating [5] | H: barnyard grass, herbicidal effect rating [6] | I: wild oat, herbicidal effect rating [7] | J: blackgrass, herbicidal effect rating [8] | K: Italian ryegrass, herbicidal effect rating [9] | L: windgrass, herbicidal effect rating [10] | M: velvetleaf, herbicidal effect rating [11] | N: redroot pigweed, herbicidal effect rating [12] | O: lambsquarters, herbicidal effect rating [13] | P: chickweed, herbicidal effect rating [14] | R: persian speedwell, herbicidal effect rating [15] | F: southern crabgrass, herbicidal effect [16] | G: green foxtail, herbicidal effect [17] | H: barnyard grass, herbicidal effect [18] | I: wild oat, herbicidal effect [19] | J: blackgrass, herbicidal effect [20] | also measured |
| --- | --- | --- | --- | --- | --- | --- | --- | --- | --- | --- | --- | --- | --- | --- | --- | --- | --- | --- | --- | --- | --- |
| COc1nn(C)c(=O)c(-c2c(-c3ccc([N+](=O)[O-])cc3)sc3ccccc23)c1O [1-168] | 0 (Herbicidal rate of 5% or less (almost no effect)) | 0 (Herbicidal rate of 5% or less (almost no effect)) | 3 (Herbicidal rate of 40% or more and less than 70%) | 0 (Herbicidal rate of 5% or less (almost no effect)) | 0 (Herbicidal rate of 5% or less (almost no effect)) | 0 (Herbicidal rate of 5% or less (almost no effect)) | 0 (Herbicidal rate of 5% or less (almost no effect)) | 0 (Herbicidal rate of 5% or less (almost no effect)) | 0 (Herbicidal rate of 5% or less (almost no effect)) | 0 (Herbicidal rate of 5% or less (almost no effect)) | 0 (Herbicidal rate of 5% or less (almost no effect)) | 1 (Herbicidal rate of 5% or more and less than 20%) | 0 (Herbicidal rate of 5% or less (almost no effect)) | 4 (Herbicidal rate of 70% or more and less than 90%) | 3 (Herbicidal rate of 40% or more and less than 70%) | 3 (Herbicidal rate of 40% or more and less than 70%) | 3 (Herbicidal rate of 40% or more and less than 70%) | 2 (Herbicidal rate of 20% or more and less than 40%) | 0 (Herbicidal rate of 5% or less (almost no effect)) | 0 (Herbicidal rate of 5% or less (almost no effect)) | K: Italian ryegrass, herbicidal effect [21]: 2 (Herbicidal rate of 20% or more and less than 40%); L: windgrass, herbicidal effect [22]: 0 (Herbicidal rate of 5% or less (almost no effect)); M: velvetleaf, herbicidal effect [23]: 4 (Herbicidal rate of 70% or more and less than 90%); N: redroot pigweed, herbicidal effect [24]: 5 (Herbicidal rate of 90% or more (almost completely withered)); O: lambsquarters, herbicidal effect [25]: 4 (Herbicidal rate of 70% or more and less than 90%); P: chickweed, herbicidal effect [26]: 5 (Herbicidal rate of 90% or more (almost completely withered)); R: persian speedwell, herbicidal effect [27]: 5 (Herbicidal rate of 90% or more (almost completely withered)) |
| COc1nn(C)c(=O)c(-c2c(-c3ccc(C#N)cc3)sc3ccccc23)c1O [1-170] | 2 (Herbicidal rate of 20% or more and less than 40%) | 1 (Herbicidal rate of 5% or more and less than 20%) | 5 (Herbicidal rate of 90% or more (almost completely withered)) | 0 (Herbicidal rate of 5% or less (almost no effect)) | 0 (Herbicidal rate of 5% or less (almost no effect)) | 0 (Herbicidal rate of 5% or less (almost no effect)) | 0 (Herbicidal rate of 5% or less (almost no effect)) | 0 (Herbicidal rate of 5% or less (almost no effect)) | 0 (Herbicidal rate of 5% or less (almost no effect)) | 0 (Herbicidal rate of 5% or less (almost no effect)) | 0 (Herbicidal rate of 5% or less (almost no effect)) | 5 (Herbicidal rate of 90% or more (almost completely withered)) | 0 (Herbicidal rate of 5% or less (almost no effect)) | 4 (Herbicidal rate of 70% or more and less than 90%) | 5 (Herbicidal rate of 90% or more (almost completely withered)) | 3 (Herbicidal rate of 40% or more and less than 70%) | 5 (Herbicidal rate of 90% or more (almost completely withered)) | 4 (Herbicidal rate of 70% or more and less than 90%) | 2 (Herbicidal rate of 20% or more and less than 40%) | 0 (Herbicidal rate of 5% or less (almost no effect)) | K: Italian ryegrass, herbicidal effect [21]: 3 (Herbicidal rate of 40% or more and less than 70%); L: windgrass, herbicidal effect [22]: 0 (Herbicidal rate of 5% or less (almost no effect)); M: velvetleaf, herbicidal effect [23]: 5 (Herbicidal rate of 90% or more (almost completely withered)); N: redroot pigweed, herbicidal effect [24]: 5 (Herbicidal rate of 90% or more (almost completely withered)); O: lambsquarters, herbicidal effect [25]: 5 (Herbicidal rate of 90% or more (almost completely withered)); P: chickweed, herbicidal effect [26]: 5 (Herbicidal rate of 90% or more (almost completely withered)); R: persian speedwell, herbicidal effect [27]: 5 (Herbicidal rate of 90% or more (almost completely withered)) |
